Where “and” joins values, the source holds several entries; their conditions need not be identical. Equal entries are not always repeated. Where two headings read alike, the source gives them in different places.
Key:
[1] = system: PANC‐1; test: SRB chemosensitivity assay, PANC‐1 cells; type: cell-based; details: Homo sapiens, read-out: IC50 PANC‐1
Protocol: (§1) Three lines of immortalized PDAC cells were selected as representative phenotypes: mesenchymal (PATU‐T), quasimesenchymal (PANC‐1), and an epithelial clone of SUIT 2 cells (SUIT 2.28). Cells were cultured in noncoated T‐75 and T‐25 flasks under adherent conditions, using 1× DMEM (Gibco, 41,966,029) for PATU‐T and RPMI (Gibco, 21,875,034) for SUIT 2.28 and PANC‐1, both supplemented with 10% NBCS and 1% P/S. Additional employed models were the PDAC3 cells, a primary cell culture, the PSCs, which were immortalized healthy pancreatic cells, and the PATU‐T‐GR, which was a gemcitabine resistant model of PATU‐T. PDAC3 and PSCs were cultivated using complete RPMI medium, while PATU‐T‐GR required complete DMEM medium. For seeding, cells were detached with Trypsin‐EDTA (0.05%) (GibcoTM, 25,300–096) and were consequently counted using the Automated Cell Counter (Luna‐II, Westburg). Cells were then plated on 96‐ or 6‐well plates depending on the planned experiment.
(§2) The Sulforhodamine B (SRB) chemosensitivity assay was used to measure cytotoxicity and cell proliferation post drug treatment. At day 0, 3–6 × 10^3 cells were seeded in a 96‐well plate, depending on the cell line. At day 1, cells were attached and ready to be treated. For the calculation of the IC50, drug dilutions for the compounds 1b, 1c, 1d, 1e, 1g, 1hr, 1i, 1j, and LDC4297 (MedChemExpress, HY‐12,653) were prepared in dilution trays and eight different concentrations were included. These were added in triplicates to the cells, which were then incubated for […] at 37 °C in 5% CO2. During day 1, the control plate was fixed with 50% Trichloroacetic acid (TCA), as intended to be the baseline plate used for the normalization of the data. 72 h post‐treatment, the cells were fixed with TCA, and placed at 4 °C for about 2 h. The plates were then washed with distillated water and left to dry under the hood with ventilation. Subsequently, plates were stained with 0.4% SRB for 15 min and washed with 1% acetic acid to remove excess stain. Once dried again, the protein‐bound SRB was dissolved in 10 mM TRIS, and the plates were placed on a shaker for 10 min per plate. Lastly, the absorbance was measured at 492 nm with a spectrophotometer (Synergy HT, BioTek). The absorbance data obtained were normalized to the day 1 control, and the percentage of cell growth in relation to the control was calculated using the following formula. (1) %Cell growth=Mean OD treatment−Mean OD day0/Mean OD control−Mean OD day0×100
(§3) The percentage of proliferation and their respective standard deviations were used to perform statistical analysis in GraphPad Prism software v 10 (GraphPad Software, San Diego, CA). Data were normalized to the day 0 control and to their own untreated 72 h control. These were transformed into logarithmic data, and log(inhibitor) versus response analysis was performed for obtaining the IC50 values per cell lines. Each experiment was conducted in triplicates.

[2] = system: SUIT 2.28; test: SRB chemosensitivity assay, SUIT 2.28 cells; type: cell-based; details: read-out: IC50 SUIT 2.28
Protocol: as §1, §2, §3

[3] = system: PATU‐T GR; test: SRB chemosensitivity assay, gemcitabine resistant PATU‐T GR cells; type: cell-based
Protocol: as §1, §2
The percentage of proliferation and their respective standard deviations were used to perform statistical analysis in GraphPad Prism software v 10 (GraphPad Software, San Diego, CA). Data were normalized to the day 0 control and to their own untreated 72 h control. […]

[4] = system: PSC; test: SRB chemosensitivity assay, pancreatic stellate cells (PSC); type: cell-based; details: Fibroblast, read-out: IC50 PSC
Protocol: as §1
as §2, with “The plates were then washed with distillated water and left to dry under the hood with ventilation. Subsequently, plates were stained with 0.4% SRB for 15 min and washed with 1% acetic acid to remove excess stain. Once dried again, the protein‐bound SRB was dissolved in 10 mM TRIS, and the plates were placed on a shaker for 10 min per plate.” left out, “(1) %Cell growth=Mean OD treatment−Mean OD day0/Mean OD control−Mean OD day0×100” left out

[5] = system: SUIT 2.28; test: Cell cycle analysis (FACS, PI staining), SUIT 2.28; type: cell-based; details: for percentage of cells in the G0‐G1 phase: untreated 24.6%; for percentage of cells in the G2‐M phase: untreated 32.7%; for percentage of cells in the S phase: untreated 42.7%
Protocol: Modulation of the cell cycle was analyzed via flow cytometry. Cells (5 × 10^5 cells mL^− ^1) were seeded in 6‐well plates and were incubated at 37 °C overnight. Cells were treated with the compounds 1b and 1g at two different concentrations (1 × IC50 and 4 × IC50, according to each cell line) and were again incubated for 24 and 72 h. After treatment, cells were harvested with trypsin and were collected in specific fluorescence‐activated cell sorting (FACS) tubes. Cells were then washed with PBS and centrifuged at 1500 rpm for 5 min, in order to form a pellet. These pellets were fixed in 1 mL of ice‐cold 70% ethanol, added drop by drop during vortex, and placed in the refrigerator at 4 °C. After overnight incubation, the cells were washed twice with PBS, centrifuged (5 min at 1500 rpm), resuspended in 50 µL of RNase (100 µg mL^− ^1), and incubated for 30 min at 37 °C. Finally, 200 µL of propidium iodide solution (PI, 50 µg mL^− ^1) was added, and the cell distribution in the various phases of the cell cycle was analyzed via BD LSRFortessa Cell Analyzer. Data analysis was carried out with FACSdiva software (Becton Dickinson), while cell cycle distribution was determined using FCS express software.

[6] = system: PATU‐T GR; test: Wound healing assay, PATU‐T GR; type: cell-based; details: 1× and 4 × IC50, up to 24 h
Protocol: The wound healing assay was used to test the migratory ability of the selected cells post‐treatment. Cells (5 × 10^4 /well) were seeded on 96‐well. After 24 h, cells reached the optimal 100% confluency, and an artificial wound was created with a 96‐well Pintool Scratcher. The cells were immediately washed with complete medium, in order to remove cell debris after the scratch, and images of the wells were captured at time 0 h, right before the addition of the treatment. Each drug (1b and 1g) was previously diluted in the respective medium at two different concentrations: 1 × IC50 and 4 × IC50 (according to the cell specific IC50 value) and were then added to the cells. Images were then taken at timepoints 4, 8, 20, and 24 h using the Leica microscope with a JAI TMC‐137 camera to assess wound closure. The images were analyzed using the Universal Grab 6.3 software (DCILabs), and the obtained data were used to determine the percentage of migration of the cells, using the following formula. (2) % Migration=Mean width of the wound atT=0−Mean width of the wound atT=X/Mean width of the wound atT=0×100

[7] = biological target: CDK7 (Homo sapiens, UniProt P50613); test: In vitro CDK7 enzyme inhibition assay (ADP‐Glo); type: biochemical; set-up: purchased Promega Corporation VA7402
Protocol: The CDK7 enzyme inhibition assay was conducted using the ADP‐Glo Kinase Assay (VA7402, Promega Corporation, Madison, WI, USA) according to the manufacturer's instructions. In this assay, CDK7 catalyzes the conversion of ATP to ADP. The reaction was terminated by adding the ADP‐Glo reagent, which depletes residual ATP. Subsequently, the kinase detection reagent was introduced to convert ADP back into ATP, which was then measured via a luciferase reaction, producing luminescence. The assay was carried out at room temperature, using DMSO as the solvent for the tested compounds. Each compound was tested at eight different concentrations. […] Luminescence was recorded using a BioTek plate reader (BioTek Instruments Inc.), as previously described.^[ [39] ^] The percentage of enzyme inhibition was determined for each compound at different concentrations, and mean IC50 values of triplicate experiments were calculated using GraphPad Prism.

[8] = biological target: phosphorylated CDK7 (p‐CDK7) (Homo sapiens, UniProt P50613); test: Phospho‐CDK7 (Thr170) cell‐based ELISA, SUIT 2.28; set-up: two PDAC preclinical models (SUIT 2.28 and PDAC3); endogenous in cells; host or cells: SUIT 2.28; details: SUIT 2.28, 4 × IC50, ELISA
Protocol: To detect CDK7 and phospho‐CDK7 levels at Thr170 residue after treatment, an enzyme‐linked immunosorbent assay (Biomatik, Phospho‐CDK7 (Thr170) Colorimetric Cell‐Based ELISA Kit, Cat# EKA51274) was performed according to the manufacturer's protocols. […] The absorbance was read at 450 nm using a microplate reader.

Chain of phosphorylated CDK7 (p‐CDK7) (P50613 2-346 limits assumed): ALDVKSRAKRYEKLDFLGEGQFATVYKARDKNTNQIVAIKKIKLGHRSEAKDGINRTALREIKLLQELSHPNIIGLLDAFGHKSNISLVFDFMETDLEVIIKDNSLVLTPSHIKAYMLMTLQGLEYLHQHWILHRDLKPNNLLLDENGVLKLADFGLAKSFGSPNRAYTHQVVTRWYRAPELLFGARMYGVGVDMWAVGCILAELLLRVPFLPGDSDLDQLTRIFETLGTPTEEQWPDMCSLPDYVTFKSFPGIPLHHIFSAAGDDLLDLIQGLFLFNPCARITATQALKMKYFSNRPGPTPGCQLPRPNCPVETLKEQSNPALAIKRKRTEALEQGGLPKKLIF
Chain of phosphorylated CDK7 (p‐CDK7) (P51946 whole entry partner): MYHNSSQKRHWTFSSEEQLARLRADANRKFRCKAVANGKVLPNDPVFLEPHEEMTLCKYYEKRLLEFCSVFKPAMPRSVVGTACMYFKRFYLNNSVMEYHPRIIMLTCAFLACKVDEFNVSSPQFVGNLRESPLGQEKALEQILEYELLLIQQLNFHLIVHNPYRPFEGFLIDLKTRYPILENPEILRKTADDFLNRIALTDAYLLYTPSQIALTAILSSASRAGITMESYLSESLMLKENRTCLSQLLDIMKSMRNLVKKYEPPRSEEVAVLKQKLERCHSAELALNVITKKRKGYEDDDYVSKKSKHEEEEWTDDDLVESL
Chain of phosphorylated CDK7 (p‐CDK7) (P51948 whole entry partner): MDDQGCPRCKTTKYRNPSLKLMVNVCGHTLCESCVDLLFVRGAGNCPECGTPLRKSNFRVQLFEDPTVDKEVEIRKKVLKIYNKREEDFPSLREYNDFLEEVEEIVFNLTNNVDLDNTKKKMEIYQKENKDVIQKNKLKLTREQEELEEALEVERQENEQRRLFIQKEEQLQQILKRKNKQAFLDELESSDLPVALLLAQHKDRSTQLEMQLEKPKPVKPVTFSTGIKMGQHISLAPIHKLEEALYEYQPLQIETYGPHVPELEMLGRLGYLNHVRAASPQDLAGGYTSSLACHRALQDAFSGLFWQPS
Chain of CDK7 (P50613 whole entry): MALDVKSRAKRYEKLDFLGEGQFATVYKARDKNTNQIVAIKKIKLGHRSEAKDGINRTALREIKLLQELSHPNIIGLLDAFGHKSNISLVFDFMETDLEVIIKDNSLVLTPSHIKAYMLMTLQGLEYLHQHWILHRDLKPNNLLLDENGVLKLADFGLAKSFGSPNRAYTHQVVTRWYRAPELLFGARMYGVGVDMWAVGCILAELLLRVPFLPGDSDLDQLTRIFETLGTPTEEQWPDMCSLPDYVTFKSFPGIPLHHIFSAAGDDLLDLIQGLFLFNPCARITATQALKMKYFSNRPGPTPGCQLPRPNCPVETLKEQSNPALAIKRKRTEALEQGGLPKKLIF
Chain of CDK7 (P51946 whole entry partner): as the sequence (P51946 whole entry partner) above
Chain of CDK7 (P51948 whole entry partner): as the sequence (P51948 whole entry partner) above

Cn1cc(-c2cc3ncnc(N)n3n2)c2cc(Br)ccc21 [Compound 1g, 7‐(5‐Bromo‐1‐methyl‐1H‐indol‐3‐yl)pyrazolo[1,5‐a][1,3,5]triazin‐4‐amine]
IC50 ([1]; PANC-1, 72 h): 2.9 ± 0.8 µM
IC50 ([2]; 72 h): 0.2 ± 0.1 µM
IC50 ([3]; read-out: IC50 PATU‐GR, SRB, gemcitabine resistant PATU‐T GR, average ± SEM, triplicate): 2.7 µM
IC50 ([3]; read-out: IC50 PATU‐GR; SRB, gemcitabine resistant PATU‐T GR, average ± SEM, triplicate): 2.7 ± 0.5 µM
IC50 [4]: 5.3 ± 1.1 µM
percentage of cells in the G0‐G1 phase ([5]; SUIT 2.28, 1 × IC50, 24 h): 36.2%
percentage of cells in the G2‐M phase ([5]; SUIT 2.28, 1 × IC50, 24 h): 25.9%
percentage of cells in the S phase ([5]; SUIT 2.28, 1 × IC50, 24 h): 37.8%
percentage of cells in the G0‐G1 phase ([5]; SUIT 2.28, 4 × IC50, 24 h): 40.3%
percentage of cells in the G2‐M phase ([5]; SUIT 2.28, 4 × IC50, 24 h): 25.4%
percentage of cells in the S phase ([5]; SUIT 2.28, 4 × IC50, 24 h): 34.2%
inhibition of cell migration [6]: significantly inhibited as early as 4 h
IC50 [7]: 0.028 µM
p‐CDK7 expression vs untreated [8]: decrease in p‐CDK7 expression

Nc1ncnc2cc(-c3c[nH]c4ccc(Br)cc34)nn12 [Compound 1b, 7‐(5‐Bromo‐1H‐indol‐3‐yl)pyrazolo[1,5‐a][1,3,5]triazin‐4‐amine]
IC50 ([1]; PANC-1, SRB, 72 h of treatment, average ± SEM, triplicate): 4.3 ± 0.8 µM
IC50 ([2]; SRB, 72 h of treatment, average ± SEM, triplicate): 0.6 ± 0.1 µM
IC50 ([3]; SRB, gemcitabine resistant PATU‐T GR, average ± SEM, triplicate; read-out: IC50 PATU‐GR): 1.92 µM and 1.9 µM
IC50 ([4]; SRB, nontumorous immortalized pancreatic fibroblasts, average ± SEM, triplicate): 6.6 ± 0.7 µM
percentage of cells in the G0‐G1 phase ([5]; SUIT 2.28, 1 × IC50, 24 h): 41.0%
percentage of cells in the G2‐M phase ([5]; SUIT 2.28, 1 × IC50, 24 h): 18.7%
percentage of cells in the S phase ([5]; SUIT 2.28, 1 × IC50, 24 h): 40.3%
percentage of cells in the G0‐G1 phase ([5]; SUIT 2.28, 4 × IC50, 24 h): 41.6%
percentage of cells in the G2‐M phase ([5]; SUIT 2.28, 4 × IC50, 24 h): 21.6%
percentage of cells in the S phase ([5]; SUIT 2.28, 4 × IC50, 24 h): 34.9%
inhibition of cell migration [6]: significantly inhibited as early as 4 h
IC50 ([7]; ADP‐Glo assay, mean of triplicate experiments, read-out: CDK7 inhibition activity IC50): 0.025 µM
p‐CDK7 expression vs untreated [8]: decrease in p‐CDK7 expression

Source: paper PMC12503906, “Novel Pyrazolo [1,5‐a]−1,3,5‐Triazine Derivatives as CDK7 Inhibitors: Synthesis and Biological Insights in Pancreatic Ductal Adenocarcinoma Models” (Chemmedchem, 2025)
